Measurements taken from ChEMBL document CHEMBL5653631, “A Potent and Selective ULK1 Inhibitor Suppresses Autophagy and Sensitizes Cancer Cells to Nutrient Stress” (iScience, 2018).
Values belong to the molecule of their own block, whether it stands above or below them.

What was measured:
[1] = target: Protein kinase C delta type (Homo sapiens) (UniProt Q05655); experiment: Inhibition of human recombinant PKCd at 500 nM related to control ULK1
[2] = target: T1, Eukaryotic translation initiation factor 2-alpha kinase 3 (Homo sapiens) (UniProt Q9NZJ5); experiment: Inhibition of human recombinant PEK at 500 nM related to control ULK1
T1 sequence (whole entry): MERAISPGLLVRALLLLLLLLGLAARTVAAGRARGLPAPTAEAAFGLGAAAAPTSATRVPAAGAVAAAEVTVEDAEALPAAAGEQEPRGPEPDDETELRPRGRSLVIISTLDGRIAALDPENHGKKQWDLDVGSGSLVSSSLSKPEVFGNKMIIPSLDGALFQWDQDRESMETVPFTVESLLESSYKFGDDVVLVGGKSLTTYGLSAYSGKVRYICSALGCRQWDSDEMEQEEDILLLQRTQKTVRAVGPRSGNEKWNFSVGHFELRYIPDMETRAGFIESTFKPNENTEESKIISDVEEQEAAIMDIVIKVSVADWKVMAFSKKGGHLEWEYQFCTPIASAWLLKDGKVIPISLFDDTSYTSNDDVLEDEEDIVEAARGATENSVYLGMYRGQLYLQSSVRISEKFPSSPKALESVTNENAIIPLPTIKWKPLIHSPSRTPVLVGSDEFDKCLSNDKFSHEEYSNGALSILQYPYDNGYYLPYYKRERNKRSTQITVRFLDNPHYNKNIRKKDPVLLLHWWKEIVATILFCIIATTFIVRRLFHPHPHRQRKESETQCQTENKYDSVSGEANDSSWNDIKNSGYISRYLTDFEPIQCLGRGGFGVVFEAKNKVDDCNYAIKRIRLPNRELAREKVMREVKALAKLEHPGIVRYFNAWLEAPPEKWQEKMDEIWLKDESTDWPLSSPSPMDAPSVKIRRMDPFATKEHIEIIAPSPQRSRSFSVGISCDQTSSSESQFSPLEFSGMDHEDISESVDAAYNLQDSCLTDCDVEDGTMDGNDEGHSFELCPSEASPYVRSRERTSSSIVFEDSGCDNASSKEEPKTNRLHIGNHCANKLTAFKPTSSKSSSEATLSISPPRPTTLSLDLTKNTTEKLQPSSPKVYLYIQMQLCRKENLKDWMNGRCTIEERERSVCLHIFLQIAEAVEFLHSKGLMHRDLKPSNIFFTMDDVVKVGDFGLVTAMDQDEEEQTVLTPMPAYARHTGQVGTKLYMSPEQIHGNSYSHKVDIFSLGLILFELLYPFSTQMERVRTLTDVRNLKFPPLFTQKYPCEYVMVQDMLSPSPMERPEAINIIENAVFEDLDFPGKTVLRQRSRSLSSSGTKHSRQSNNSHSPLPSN

[3] = target: Protein-tyrosine kinase 6 (Homo sapiens) (UniProt Q13882); experiment: Inhibition of human recombinant BRK at 500 nM related to control ULK1
[4] = target: Focal adhesion kinase 1 (Homo sapiens) (UniProt Q05397); experiment: Inhibition of human recombinant FAK at 15 nM in presence of ATP by radiometric assay relative to control
[5] = target: NT-3 growth factor receptor (Homo sapiens) (UniProt Q16288); experiment: Inhibition of human recombinant TRKC at 15 nM in presence of ATP by radiometric assay relative to control
[6] = target: Tyrosine-protein kinase FRK (Homo sapiens) (UniProt P42685); experiment: Inhibition of human recombinant FRK at 40 nM in presence of ATP by radiometric assay relative to control
[7] = target: Tyrosine-protein kinase Fgr (Homo sapiens) (UniProt P09769); experiment: Inhibition of human recombinant FGR at 40 nM related to control ULK1
[8] = target: T2, Testis-specific serine/threonine-protein kinase 1 (Homo sapiens) (UniProt Q9BXA7); experiment: Inhibition of human recombinant TSSK1 at 40 nM in presence of ATP by radiometric assay relative to control
T2 sequence (whole entry): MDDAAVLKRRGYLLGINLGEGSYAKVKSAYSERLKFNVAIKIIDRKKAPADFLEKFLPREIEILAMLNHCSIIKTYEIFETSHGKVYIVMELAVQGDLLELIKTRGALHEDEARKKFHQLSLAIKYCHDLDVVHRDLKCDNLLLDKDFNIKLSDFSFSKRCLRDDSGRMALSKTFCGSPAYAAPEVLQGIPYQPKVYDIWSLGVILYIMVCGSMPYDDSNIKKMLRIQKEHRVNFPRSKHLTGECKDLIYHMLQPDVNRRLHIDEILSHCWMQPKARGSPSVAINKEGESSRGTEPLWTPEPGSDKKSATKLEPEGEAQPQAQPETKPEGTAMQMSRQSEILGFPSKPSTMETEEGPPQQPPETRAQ

[9] = target: T3, Serine/threonine-protein kinase ULK2 (Homo sapiens) (UniProt Q8IYT8); experiment: Inhibition of human recombinant ULK2 at 40 nM related to control ULK1
T3 sequence (whole entry): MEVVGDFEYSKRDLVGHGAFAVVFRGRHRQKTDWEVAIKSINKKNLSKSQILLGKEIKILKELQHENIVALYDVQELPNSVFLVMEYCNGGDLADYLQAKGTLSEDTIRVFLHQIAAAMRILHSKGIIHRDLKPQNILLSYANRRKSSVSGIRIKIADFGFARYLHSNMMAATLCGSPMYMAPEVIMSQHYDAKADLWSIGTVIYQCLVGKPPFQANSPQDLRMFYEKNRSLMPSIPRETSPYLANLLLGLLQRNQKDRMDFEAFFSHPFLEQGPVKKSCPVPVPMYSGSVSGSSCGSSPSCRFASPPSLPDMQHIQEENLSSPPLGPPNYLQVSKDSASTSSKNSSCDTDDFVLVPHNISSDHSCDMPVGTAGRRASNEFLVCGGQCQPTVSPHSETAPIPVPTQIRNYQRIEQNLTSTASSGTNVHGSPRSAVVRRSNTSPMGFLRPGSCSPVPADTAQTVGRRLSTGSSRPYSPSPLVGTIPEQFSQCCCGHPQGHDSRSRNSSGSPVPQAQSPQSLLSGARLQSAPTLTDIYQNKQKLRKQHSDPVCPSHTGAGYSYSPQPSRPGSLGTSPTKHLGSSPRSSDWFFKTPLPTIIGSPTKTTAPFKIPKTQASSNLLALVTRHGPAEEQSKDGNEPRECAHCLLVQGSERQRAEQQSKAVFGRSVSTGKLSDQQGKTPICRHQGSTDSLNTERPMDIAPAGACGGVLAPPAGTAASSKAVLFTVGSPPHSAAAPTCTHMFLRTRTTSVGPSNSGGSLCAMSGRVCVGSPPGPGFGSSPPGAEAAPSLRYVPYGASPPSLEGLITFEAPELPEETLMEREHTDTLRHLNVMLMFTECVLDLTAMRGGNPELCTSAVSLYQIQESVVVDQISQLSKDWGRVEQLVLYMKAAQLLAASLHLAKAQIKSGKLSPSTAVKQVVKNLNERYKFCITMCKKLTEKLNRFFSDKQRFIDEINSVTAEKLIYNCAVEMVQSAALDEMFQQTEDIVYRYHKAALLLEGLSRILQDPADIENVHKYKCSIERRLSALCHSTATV

Chain of Focal adhesion kinase 1 (Homo sapiens) (Q05397 2-1052 limits assumed): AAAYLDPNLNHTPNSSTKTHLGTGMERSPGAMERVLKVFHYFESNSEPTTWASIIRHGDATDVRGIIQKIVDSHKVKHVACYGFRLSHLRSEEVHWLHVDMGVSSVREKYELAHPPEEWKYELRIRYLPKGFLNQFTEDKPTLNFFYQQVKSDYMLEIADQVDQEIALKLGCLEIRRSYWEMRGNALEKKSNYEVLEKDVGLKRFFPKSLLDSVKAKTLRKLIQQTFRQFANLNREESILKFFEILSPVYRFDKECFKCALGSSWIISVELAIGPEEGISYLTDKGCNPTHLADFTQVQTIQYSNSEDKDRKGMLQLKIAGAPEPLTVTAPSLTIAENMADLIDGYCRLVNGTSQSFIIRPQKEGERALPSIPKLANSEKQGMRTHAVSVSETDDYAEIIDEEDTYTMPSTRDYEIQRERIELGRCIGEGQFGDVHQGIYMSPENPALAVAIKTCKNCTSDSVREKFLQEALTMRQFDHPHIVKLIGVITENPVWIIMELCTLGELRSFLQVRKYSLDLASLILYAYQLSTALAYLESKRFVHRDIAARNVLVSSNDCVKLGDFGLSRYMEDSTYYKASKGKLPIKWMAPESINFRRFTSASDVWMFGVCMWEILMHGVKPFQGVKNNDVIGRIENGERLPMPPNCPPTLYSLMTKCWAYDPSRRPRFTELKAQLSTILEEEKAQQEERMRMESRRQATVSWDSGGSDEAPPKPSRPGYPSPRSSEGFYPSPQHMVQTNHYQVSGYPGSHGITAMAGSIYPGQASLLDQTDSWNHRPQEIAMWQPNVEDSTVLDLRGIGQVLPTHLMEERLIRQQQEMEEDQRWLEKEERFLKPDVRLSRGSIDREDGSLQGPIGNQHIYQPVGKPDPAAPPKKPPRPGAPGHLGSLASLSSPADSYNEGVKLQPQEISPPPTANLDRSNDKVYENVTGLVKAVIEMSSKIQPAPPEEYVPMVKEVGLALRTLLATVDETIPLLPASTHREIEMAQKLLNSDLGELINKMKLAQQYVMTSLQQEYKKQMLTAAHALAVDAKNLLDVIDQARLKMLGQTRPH
Chain of Tyrosine-protein kinase Fgr (Homo sapiens) (P09769 2-529 limits assumed): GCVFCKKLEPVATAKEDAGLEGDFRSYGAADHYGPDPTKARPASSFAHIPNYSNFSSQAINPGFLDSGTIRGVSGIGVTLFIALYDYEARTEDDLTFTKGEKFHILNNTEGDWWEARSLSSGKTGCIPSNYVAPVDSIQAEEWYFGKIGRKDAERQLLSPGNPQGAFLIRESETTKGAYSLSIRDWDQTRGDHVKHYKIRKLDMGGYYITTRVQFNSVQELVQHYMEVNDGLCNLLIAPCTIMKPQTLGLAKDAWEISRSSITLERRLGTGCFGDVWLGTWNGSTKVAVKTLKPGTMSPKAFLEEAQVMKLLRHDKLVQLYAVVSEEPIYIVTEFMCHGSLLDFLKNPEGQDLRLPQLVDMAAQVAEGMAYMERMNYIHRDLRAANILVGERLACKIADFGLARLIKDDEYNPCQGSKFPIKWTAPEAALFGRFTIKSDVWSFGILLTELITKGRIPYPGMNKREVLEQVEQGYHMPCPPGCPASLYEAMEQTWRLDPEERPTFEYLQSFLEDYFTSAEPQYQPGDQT
Chain of NT-3 growth factor receptor (Homo sapiens) (Q16288 32-839 limits assumed): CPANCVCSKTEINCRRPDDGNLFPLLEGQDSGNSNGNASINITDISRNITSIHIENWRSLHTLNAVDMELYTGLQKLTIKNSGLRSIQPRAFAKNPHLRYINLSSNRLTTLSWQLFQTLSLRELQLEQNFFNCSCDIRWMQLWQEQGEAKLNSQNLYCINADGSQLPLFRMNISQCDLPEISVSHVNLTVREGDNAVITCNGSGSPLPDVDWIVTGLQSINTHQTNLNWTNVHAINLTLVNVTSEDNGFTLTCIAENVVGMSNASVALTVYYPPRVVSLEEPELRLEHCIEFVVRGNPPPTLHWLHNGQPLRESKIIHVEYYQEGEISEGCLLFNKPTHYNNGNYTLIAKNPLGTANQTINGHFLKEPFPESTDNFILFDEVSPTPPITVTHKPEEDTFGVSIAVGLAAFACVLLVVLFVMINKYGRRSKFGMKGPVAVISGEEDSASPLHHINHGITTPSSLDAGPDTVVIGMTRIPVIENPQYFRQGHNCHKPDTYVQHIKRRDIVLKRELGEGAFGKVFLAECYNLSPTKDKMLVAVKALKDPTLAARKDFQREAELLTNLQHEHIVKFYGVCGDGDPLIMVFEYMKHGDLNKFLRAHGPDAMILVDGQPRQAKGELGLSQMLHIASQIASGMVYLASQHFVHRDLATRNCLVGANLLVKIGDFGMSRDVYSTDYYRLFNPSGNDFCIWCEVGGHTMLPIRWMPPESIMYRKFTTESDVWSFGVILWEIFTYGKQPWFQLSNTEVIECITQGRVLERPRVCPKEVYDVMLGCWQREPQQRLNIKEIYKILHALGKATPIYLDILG
Chain of Tyrosine-protein kinase FRK (Homo sapiens) (P42685 whole entry): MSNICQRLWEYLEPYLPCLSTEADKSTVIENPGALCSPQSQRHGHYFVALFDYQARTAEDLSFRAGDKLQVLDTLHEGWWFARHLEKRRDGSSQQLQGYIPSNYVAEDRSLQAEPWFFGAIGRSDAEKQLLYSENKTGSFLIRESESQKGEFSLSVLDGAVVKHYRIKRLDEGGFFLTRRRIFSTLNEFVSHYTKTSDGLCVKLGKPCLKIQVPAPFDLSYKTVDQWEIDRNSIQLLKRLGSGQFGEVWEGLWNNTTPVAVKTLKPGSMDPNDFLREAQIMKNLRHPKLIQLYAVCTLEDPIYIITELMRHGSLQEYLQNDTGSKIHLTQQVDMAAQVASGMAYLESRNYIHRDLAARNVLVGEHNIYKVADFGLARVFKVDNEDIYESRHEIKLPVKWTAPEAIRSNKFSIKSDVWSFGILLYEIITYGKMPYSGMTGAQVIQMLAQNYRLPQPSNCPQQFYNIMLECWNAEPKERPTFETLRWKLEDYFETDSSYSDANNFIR
Chain of Protein kinase C delta type (Homo sapiens) (Q05655 whole entry, looked up): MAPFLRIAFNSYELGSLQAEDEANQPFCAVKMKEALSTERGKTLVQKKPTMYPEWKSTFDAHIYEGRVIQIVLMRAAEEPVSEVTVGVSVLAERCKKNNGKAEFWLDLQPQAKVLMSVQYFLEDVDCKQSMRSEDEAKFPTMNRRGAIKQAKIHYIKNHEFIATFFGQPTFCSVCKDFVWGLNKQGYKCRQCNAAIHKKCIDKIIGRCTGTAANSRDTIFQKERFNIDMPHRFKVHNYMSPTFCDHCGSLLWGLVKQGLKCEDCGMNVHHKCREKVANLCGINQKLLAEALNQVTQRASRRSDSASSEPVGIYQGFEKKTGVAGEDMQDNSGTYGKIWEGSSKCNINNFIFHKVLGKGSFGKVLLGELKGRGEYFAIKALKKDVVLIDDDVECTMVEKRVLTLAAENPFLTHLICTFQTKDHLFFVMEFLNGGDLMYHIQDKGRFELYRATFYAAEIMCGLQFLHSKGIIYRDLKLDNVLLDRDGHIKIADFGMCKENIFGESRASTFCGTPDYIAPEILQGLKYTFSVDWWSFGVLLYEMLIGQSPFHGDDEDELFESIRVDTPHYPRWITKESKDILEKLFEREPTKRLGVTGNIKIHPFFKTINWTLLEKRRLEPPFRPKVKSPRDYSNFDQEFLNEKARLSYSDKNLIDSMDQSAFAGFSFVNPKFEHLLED
Chain of Protein-tyrosine kinase 6 (Homo sapiens) (Q13882 whole entry, looked up): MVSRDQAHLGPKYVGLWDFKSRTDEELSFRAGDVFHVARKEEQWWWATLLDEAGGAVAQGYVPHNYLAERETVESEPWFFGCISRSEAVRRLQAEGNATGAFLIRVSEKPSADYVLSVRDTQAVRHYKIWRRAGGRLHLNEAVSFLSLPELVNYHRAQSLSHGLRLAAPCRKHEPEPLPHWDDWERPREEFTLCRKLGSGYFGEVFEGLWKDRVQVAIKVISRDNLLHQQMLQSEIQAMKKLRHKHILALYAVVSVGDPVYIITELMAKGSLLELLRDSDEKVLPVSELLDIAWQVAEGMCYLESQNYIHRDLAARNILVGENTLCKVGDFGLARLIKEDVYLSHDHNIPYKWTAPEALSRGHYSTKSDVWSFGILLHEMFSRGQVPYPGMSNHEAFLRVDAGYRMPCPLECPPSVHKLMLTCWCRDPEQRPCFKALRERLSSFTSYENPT

- fold change (FC) [1]: 0.04
- fold change (FC) [2]: 0
- fold change (FC) [3]: 0.03
Compound: CNC(=O)c1ccccc1Oc1nc(Nc2cc(OC)c(OC)c(OC)c2)ncc1Br

- inhibition [4]: 0%
- inhibition [5]: 0%
Compound: CC(C)[C@H](NC(=O)c1cc(-c2cnn3cc(-c4ccc(OCCN5CCCCC5)cc4)cnc23)cs1)C(F)(F)F

- inhibition [6]: 0%
- fold change (FC) [7]: 0.05
- inhibition [8]: 0%
- fold change (FC) [9]: 0.63
Compound: O=C(N[C@@H](C1CC1)C(F)(F)F)c1cc(-c2cnn3cc(-c4ccc(F)cc4)cnc23)cs1
